In the data set the test system is human stem cell-derived cardiomyocytes.

Procedure: First, step G-1, replaces the maintenance medium in the MEA plate that has undergone the 3rd incubation step (step F-3) with a fresh maintenance medium, and places the MEA plate into the cell culture incubator at 37° C. and 5% CO2 for 3 to 5 hours (preferably 3 hours) for stabilization of cells.
Next, the first set of measurement values on beat rate, spike amplitude, and field potential duration of the human stem cell-derived cardiomyocytes are taken (step G-2) with the MEA measurement device for the MEA plate that has undergone cell stabilization step (step G-1).
After the completion of the first measurement, a portion of the maintenance medium, which corresponds to 1/10 of the total volume in the well, is removed from wells of the MEA plate that has undergone the stabilization process. […]
Here, raw files stored in the MEA measurement device program are loaded, and the desired section of the data is re-recorded and saved as a CSV file. Then the drug's effect on the field potential of cardiomyocytes is evaluated by the changes in the reaction parameter, based on the first and second measurement values which include beat interval, spike amplitude, and field potential duration, to various concentrations of the drug.
In addition, the cardiac toxicity of a drug can be determined through changes in FPDcF and spike amplitude. […]

In the case of `Cc1cccc(C)c1OCC(C)N` (stereo not shown) [Mexiletine], the “change in spike amplitude” value is reported as “decrease in the spike amplitude according to the drug concentration”.

The record behind these values is patent publication US12571791B2, “Methods for evaluating cardiac safety of drug using cardiomyocytes derived from human stem cells” (NEXEL CO., LTD., priority 2021, dated 2026).
